According to patent US5603951A, “Cyclosporin-containing soft capsule compositions” (Hanmi Pharm. Ind. Co., Ltd., priority 1994, dated 1997):

Assay: Change in cosurfactant content of soft capsules over storage at room temperature (membrane permeation, gas chromatography)
Format: physicochemical
Procedure: The content of the cosurfactant in each soft capsule preparation was analyzed by gas chromatography.
Conditions of gas chromatography for each cosurfactant
Column: Ultra 2 (Crosslinked 2% phenylmethyl silicone gun phase, 25 m
× 0.32 mm, thickness 0.52 μm)
Column temperature: 230° C. (Isothermal)
Detector: FID (Temperature: 270° C.)
Injection temperature: 275° C.
Carrier gas: He (Partition ratio 80:1)
Internal standard: Octyl alcohol
Column: HP20M (Carbowax 20M) (25 m × 0.32 mm, film thickness 0.3
Column temperature: 30° C. (Isothermal)
Detector: FID (Temperature: 200° C.)
Injection temperature: 150° C.
Internal standard: Diethyl ether

Structure (SMILES)	Change of cosurfactant content in soft capsule after 10 days (in words)	Cosurfactant content reduced by, of the initial content, after 10 days (soft capsule)
CO[C@H]1CO[C@H]2[C@@H]1OC[C@H]2OC [dimethylisosorbide]	does not change in its content	–
CCO [ethanol]	–	27.8%
